Laboratory results taken from patent US11166924B2, “N-methyl-d-aspartate receptor allosteric modulators and methods for their use” (Qingdao Primedicine Pharmaceutical Company, Ltd., priority 2016, dated 2021).

Target: T1, GluN1/GluN2A NMDARs (Rattus norvegicus, UniProt P35439+Q00959)
T1 construct: expressed in transfected cells; host or cells: HEK293
Test: Whole-cell patch clamp recordings in HEK293 cells transfected with GluN1/GluN2A
Format: cell-based
Details: for Normalized Potentiation / EC50: Table 1; for Normalized Potentiation: positive modulation of GluN1/GluN2A NMDARs, concentration not given; for EC50: potentiation, read-out: EC50
Experimental: Cells were transfected with a combination of pcDNA3-CMV expression vectors, each of which expressed one of the rat recombinant (GluN2AWT, GluN1WT, GluN2BWT) subunits. The sequences of all plasmids were confirmed by automated DNA sequencing. Human Embryonic Kidney 293 (HEK293 cells) were cultured in Dulbecco's Modified Eagle's Medium (DMEM) (Invitrogen) supplemented with 10% fetal bovine serum (FBS). When HEK293 cells achieved 90% confluence, plasmids of either GluN1 & GluN2A or GluN1 & GluN2B were co-transfected into the cells using Lipofectamine 2000 (Invitrogen, 11668019) according to manufacturer's instructions. HEK293 cells were then maintained in the 37° C. incubator with […] and 5% CO2 for 48 hrs before being used in experiments. The transfection ratios for the NMDAR subunit combinations were all 1:1 (GluN1/GluN2A or GluN1/GluN2B).
Whole cell patch-clamp recordings were performed under voltage-clamp mode using an Axopatch 200B or 1D patch-clamp amplifier (Molecular Devices). Whole-cell currents were recorded at a holding potential of −60 mV unless indicated elsewhere, and signals were filtered at 2 kHz, digitized at 10 kHz (Digidata 1322A). Recording pipettes (3-5 MΩ) were filled with intracellular solution containing (mM): CsCl 140, HEPES 10, Mg-ATP 4, QX-314 5, pH 7.20; osmolarity, 290-295 mOsm. BAPTA (10 mM) was added in the intracellular solution (unless otherwise specified). The coverslips were continuously superfused with extracellular solution containing (mM): NaCl 140, KCl 5.4, HEPES 10, CaCl2 1.3, glucose 20, pH 7.4; osmolarity, 305-315 mOsm. NMDA-induced currents were applied by NMDA through perfusion fast-step (Warner Instruments). With perfusion fast-step system, NMDA application was achieved by using a two-square barrel glass tubing and depending on the age of the cultured neurons, CNQX (10 μM), TTX (0.5 μM) or BIC (10 μM) were added in the extracellular solution to minimize the activation of ionotropic glutamate receptors and voltage-gated sodium channels, respectively. All experiments were performed at room temperature. Recordings from at least six HEK293 cells/neurons were performed for all active compounds. Data were pooled among HEK293 cells or primary neurons and composite dose-response data were fitted by the equation Percentage Response=100×Relative Efficacy/[1+(EC50/Concentration)nH], where EC50 is the concentration of agonist that produces a half-maximal response, relative efficacy is the response at maximally effective concentration relative to the maximal response of glutamate, and nH is the Hill slope.
GluN1/GluN2A NMDAR subtypes are an attractive target for positive allosteric modulation. The present inventors employed in silico computational drug discovery methods to conduct a virtual screen of purchasable lead-like compounds from the ZINC database (Irwin, J., et al. Abstr Pap Am Chem Soc (2005) 230:U1009) and some synthetic compounds to identify potential GluN1/GluN2A-NMDAR modulators. The in silico methods included large-scale docking against the interstice interface of the GluN1/GluN2A heterodimer and consensus scoring to select compounds for empirical testing. Candidate compounds were further screened by using GluN1/GluN2A transiently transfected in human embryonic kidney (HEK293) cells and tested by whole-cell patch clamp recordings.
The inventors used transiently transfected HEK293 cells expressing either GluN1/GluN2A or GluN1/GluN2B NMDARs and tested by whole-cell voltage patch clamp recordings to see whether selected compounds were controlling the subtype selectivity profile of the drugs.
Whole-cell patch clamp recordings were performed to measure glutamate evoked currents with chloride-based pipette solutions at a holding potential of −60 mV.

T1 sequence (Q00959 23-1464, other chains not shown): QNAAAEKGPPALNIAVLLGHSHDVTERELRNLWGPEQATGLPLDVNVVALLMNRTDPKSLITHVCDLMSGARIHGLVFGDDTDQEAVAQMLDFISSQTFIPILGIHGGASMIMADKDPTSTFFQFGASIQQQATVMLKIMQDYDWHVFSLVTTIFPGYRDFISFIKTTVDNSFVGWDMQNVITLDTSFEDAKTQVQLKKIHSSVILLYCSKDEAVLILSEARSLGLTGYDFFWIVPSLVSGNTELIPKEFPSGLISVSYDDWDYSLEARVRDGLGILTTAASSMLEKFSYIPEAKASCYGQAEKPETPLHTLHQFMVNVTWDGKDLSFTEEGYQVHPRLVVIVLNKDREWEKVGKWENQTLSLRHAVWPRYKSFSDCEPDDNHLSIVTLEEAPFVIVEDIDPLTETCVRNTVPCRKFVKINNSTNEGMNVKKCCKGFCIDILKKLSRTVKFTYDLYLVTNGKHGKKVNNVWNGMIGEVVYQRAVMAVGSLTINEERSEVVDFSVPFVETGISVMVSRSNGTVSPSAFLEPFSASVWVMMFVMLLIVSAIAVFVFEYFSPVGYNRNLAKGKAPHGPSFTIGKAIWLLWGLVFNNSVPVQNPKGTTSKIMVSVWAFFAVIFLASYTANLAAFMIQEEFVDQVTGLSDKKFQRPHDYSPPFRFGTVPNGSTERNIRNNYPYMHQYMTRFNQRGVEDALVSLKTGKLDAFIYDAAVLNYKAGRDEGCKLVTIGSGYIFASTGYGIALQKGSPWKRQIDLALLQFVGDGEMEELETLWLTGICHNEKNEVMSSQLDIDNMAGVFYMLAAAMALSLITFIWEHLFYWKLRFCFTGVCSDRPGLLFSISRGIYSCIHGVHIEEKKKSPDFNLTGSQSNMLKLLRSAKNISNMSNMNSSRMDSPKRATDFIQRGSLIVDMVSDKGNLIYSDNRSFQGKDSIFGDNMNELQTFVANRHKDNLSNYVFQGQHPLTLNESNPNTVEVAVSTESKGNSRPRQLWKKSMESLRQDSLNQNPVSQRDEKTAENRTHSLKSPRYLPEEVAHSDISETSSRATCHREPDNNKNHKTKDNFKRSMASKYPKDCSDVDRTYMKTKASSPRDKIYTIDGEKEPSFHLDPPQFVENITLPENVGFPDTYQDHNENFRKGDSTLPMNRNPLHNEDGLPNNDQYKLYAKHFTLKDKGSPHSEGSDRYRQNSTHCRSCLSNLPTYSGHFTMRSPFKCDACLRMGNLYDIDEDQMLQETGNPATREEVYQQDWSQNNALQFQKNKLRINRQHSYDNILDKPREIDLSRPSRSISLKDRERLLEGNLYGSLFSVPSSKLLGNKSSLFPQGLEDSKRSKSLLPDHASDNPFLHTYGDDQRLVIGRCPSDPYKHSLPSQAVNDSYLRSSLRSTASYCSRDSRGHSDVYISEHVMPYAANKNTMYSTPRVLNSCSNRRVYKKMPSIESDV

Normalized Potentiation	EC50	Selectivity for GluN1/GluN2A versus GluN1/GluN2B NMDARs (FIG. 2, HEK293 cells expressing GluN1/GluN2A and GluN1/GluN2B)	Structure (SMILES)
21.48 ± 2.89%			CCOc1cc(Cl)c(Cl)c(/C=N/NC(=O)Cc2ccccc2)c1O [Npam56, N′-[(1E)-(2,3-dichloro-5-ethoxy-6-hydroxyphenyl)methylidene]-2-phenylacetohydrazide]
33.37 ± 6.39%			CCOc1cc(Cl)c(Cl)c(/C=N/NC(=O)c2cccc(Br)c2C)c1OC [Npam51, 3-bromo-N′-[(1E)-(2,3-dichloro-5-ethoxy-6-methoxyphenyl)methylidene]-2-methylbenzohydrazide]
43.04 ± 6.55%			COc1cccc(/C=N/NC(=O)c2ccccc2C)c1O [Npam42, (E)-N′-(2-hydroxy-3-methoxybenzylidene)-2-methylbenzohydrazide]
441.71 ± 65.24%	0.09 µM		COc1cc(Br)c(Br)c(/C=N/NC(=O)c2ccccc2)c1O [Npam59, (E)-N′-(2,3-dibromo-6-hydroxy-5-methoxybenzylidene)benzohydrazide]
196.21 ± 35.93%			CCOc1cc(Br)cc(/C=N/NC(=O)c2ccccc2C)c1O [Npam82, (E)-N′-(5-bromo-3-ethoxy-2-hydroxybenzylidene)-2-methylbenzohydrazide]
224.79 ± 24.78%			COc1cc(Br)cc(/C=N/NC(=O)c2cccc(Br)c2)c1O [Npam47, (E)-3-bromo-N′-(5-bromo-2-hydroxy-3-methoxybenzylidene)benzohydrazide]
163.60 ± 13.94%	0.8 µM	selective for GluN1/GluN2A NMDARs	CCOc1cc(Br)cc(/C=N/NC(=O)c2ccccc2Br)c1O [Npam58, (E)-2-bromo-N′-(5-bromo-3-ethoxy-2-hydroxybenzylidene)benzohydrazide]
110.23 ± 4.70%			CCOc1cc(Cl)c(Cl)c(/C=N/NC(=O)c2ccccc2OC)c1O [Npam53, (E)-N′-(2,3-dichloro-5-ethoxy-6-hydroxybenzylidene)-2-methoxybenzohydrazide]
175.53 ± 25.9%			CCOc1cc(Cl)c(Cl)c(/C=N/N(C)C(=O)c2ccccc2)c1O [Npam52, N′-[(1E)-(2,3-dichloro-5-ethoxy-6-hydroxyphenyl)methylidene]-N-methylbenzohydrazide]
284.50 ± 85.20%			COc1cc(Br)c(Br)c(/C=N/NC(=O)c2ccccc2Cl)c1O [Npam45, (E)-2-chloro-N′-(2,3-dibromo-6-hydroxy-5-methoxybenzylidene)benzohydrazide]
466.57 ± 37.78%	0.25 µM		CCOc1cc(Br)cc(/C=N/NC(=O)c2ccc(C)cc2Cl)c1O [Npam46, (E)-N′-(5-bromo-3-ethoxy-2-hydroxybenzylidene)-2-chloro-4-methylbenzohydrazide]
443.25 ± 83.42%	0.15 µM		CCOc1cc(Cl)c(Cl)c(/C=N/NC(=O)c2ccc(C)cc2Cl)c1O [Npam44, (E)-2-chloro-N′-(2,3-dichloro-5-ethoxy-6-hydroxybenzylidene)-4-methylbenzohydrazide]
43.41 ± 13.48%			CCOc1cc(Br)cc(/C=N/NC(=O)c2ccccc2Cl)c1O [Npam54, N′-[(1E)-(5-bromo-3-ethoxy-2-hydroxyphenyl)methylidene]-2-chlorobenzohydrazide]
530.06 ± 114.00%	0.19 µM		CCOc1cc(Cl)c(Cl)c(/C=N/NC(=O)c2cc(Cl)ccc2Br)c1O [Npam49, 2-bromo-5-chloro-N′-[(1E)-(2,3-dichloro-5-ethoxy-6-hydroxyphenyl)methylidene]benzohydrazide]

Further lines, the compound ahead of its results:

Structure (SMILES)	Normalized Potentiation	EC50	Selectivity for GluN1/GluN2A versus GluN1/GluN2B NMDARs (FIG. 2, HEK293 cells expressing GluN1/GluN2A and GluN1/GluN2B)
COc1cc(Br)c(Br)c(/C=N/NC(=O)c2ccc(Cl)cc2)c1O [Npam13, (E)-4-chloro-N′-(2,3-dibromo-6-hydroxy-5-methoxybenzylidene)benzohydrazide]	195.38 ± 40.11%		
COc1cc(Cl)cc(/C=N/NC(=O)c2ccccc2Br)c1O [Npam29, (E)-2-bromo-N′-(5-chloro-2-hydroxy-3-methoxybenzylidene)benzohydrazide]	120.68 ± 9.61%		
CCOc1cc(Br)c(Br)c(/C=N/NC(=O)c2ccccc2OC)c1O [Npam12, (E)-N′-(2,3-dibromo-5-ethoxy-6-hydroxybenzylidene)-2-methoxybenzohydrazide]	118.15 ± 35.54%		
CCOc1cc(Cl)cc(/C=N/NC(=O)c2ccccc2Br)c1O [Npam18, (E)-2-bromo-N′-(5-chloro-3-ethoxy-2-hydroxybenzylidene)benzohydrazide]	213.58 ± 43.58%		
CCOc1cc(Cl)c(Cl)c(/C=N/NC(=O)NC(=O)COc2c(C)ccc(C)c2C)c1O [Npam08, (E)-2-(2,3-dichloro-5-ethoxy-6-hydroxybenzylidene)-N-(2-(2,3,6-trimethylphenoxy)acetyl)hydrazinecarboxamide]	362.76 ± 38.44%		
CCOc1cc(Cl)c(Cl)c(/C=N/NC(=O)c2cncc(Br)c2)c1O [Npam06, (E)-5-bromo-N′-(2,3-dichloro-5-ethoxy-6-hydroxybenzylidene)nicotinohydrazide]	201.19 ± 14.63%		
CCOc1cc(Cl)c(Cl)c(/C=N/NC(=O)c2ccccc2C)c1O [Npam17, (E)-N′-(2,3-dichloro-5-ethoxy-6-hydroxybenzylidene)-2-methylbenzohydrazide]	130.54 ± 13.63%		
CCOc1cccc(/C=N/NC(=O)c2ccccc2Br)c1O [Npam31, 2-bromo-N′-[(1E)-(3-ethoxy-2-hydroxyphenyl)methylidene]benzohydrazide]	15.11 ± 8.78%		
COc1cc(Br)c(Br)c(/C=N/NC(=O)c2ccccc2Br)c1O [Npam05, (E)-2-bromo-N′-(2,3-dibromo-6-hydroxy-5-methoxybenzylidene)benzohydrazide]	196.54 ± 21.20%		
CCOc1cc(Br)cc(/C=N/NC(=O)c2cccc(Br)c2)c1O [Npam38, (E)-3-bromo-N′-(5-bromo-3-ethoxy-2-hydroxybenzylidene)benzohydrazide]	426.44 ± 87.65%	0.19 µM	
CCOc1cc(Cl)c(Cl)c(/C=N/NC(=O)c2cccc(Br)c2)c1O [Npam32, (E)-3-bromo-N′-(2,3-dichloro-5-ethoxy-6-hydroxybenzylidene)benzohydrazide]	374.58 ± 19.07%	0.25 µM	
COc1cc(Cl)cc(/C=N/NC(=O)c2ccccc2Br)c1O [Npam20, (E)-2-bromo-N′-(5-chloro-2-hydroxy-3-methoxybenzylidene)benzohydrazide]	131.85 ± 23.20%		
CCOc1cc([N+](=O)[O-])cc(/C=N/NC(=O)c2cc(Cl)ccc2O)c1O [Npam24, (E)-5-chloro-N′-(3-ethoxy-2-hydroxy-5-nitrobenzylidene)-2-hydroxybenzohydrazide]	61.57 ± 8.15%		
CCOc1cc(Br)cc(/C=N/NC(=O)c2ccccc2N)c1O [Npam21, (E)-2-amino-N′-(5-bromo-3-ethoxy-2-hydroxybenzylidene)benzohydrazide]	37.27 ± 4.64%		
CCOc1cc(Br)cc(/C=N/NC(=O)c2ccc3c(c2)OCCO3)c1O [Npam23, (E)-N′-(5-bromo-3-ethoxy-2-hydroxybenzylidene)-2,3-dihydrobenzo[b][1,4]dioxine-6-carbohydrazide]	87.00 ± 6.48%		
COc1cc(Br)c(Br)c(/C=N/NC(=O)c2cccnc2)c1O [Npam39, (E)-N′-(2,3-dibromo-6-hydroxy-5-methoxybenzylidene)nicotinohydrazide]	51.95 ± 11.29%		
